Reference: patent publication US9926261B2, “Bacterial efflux pump inhibitors” (Rutgers, The State University of New Jersey, priority 2015, dated 2018)

Tested on: Escherichia coli W4573
Assay: Test A. Minimum Inhibitory Concentration (MIC)-based assay for efflux pump inhibition (enhancement of minocycline MIC)
Type: cell-based
Settings: ratio of minocycline MIC in absence of test compound to minocycline MIC in presence of test compound, test compound 12.5 μg/mL, CAMH broth, 24 hours at 37° C.
Procedure: Test A. Minimum Inhibitory Concentration (MIC)-Based Assay for Efflux Pump Inhibition:
MIC-based assays were used to evaluate the impact of potential efflux pump inhibiting (EPI) compounds on the MIC of minocycline, an antibiotic known to be a substrate for Gram-negative bacterial efflux pumps. The assays were conducted in accordance with Clinical and Laboratory Standards Institute (CLSI) guidelines for broth microdilution, with the modification that assays were conducted in the presence and absence of the test EPI compounds. When present, the EPI compounds were added to cation-adjusted Mueller-Hinton (CAMH) broth (Becton, Dickinson and Co., Franklin Lakes, N.J.) at a final concentration of 12.5 μg/mL.
Log-phase Gram-negative bacteria were added to 96-well microtiter plates (at 5×10^5 colony forming units (CFU) per mL) containing two-fold serial dilutions of minocycline in CAMH broth either in the absence or presence of the test EPI compounds. In all assays, each serial dilution of minocycline was present in duplicate. The final volume in each well was 0.1 mL, and the microtiter plates were incubated aerobically for 24 hours at 37° C. Bacterial growth was then monitored by measuring the optical density (OD) at 600 nm using a VersaMax® plate reader (Molecular Devices, Inc., Sunnyvale, Calif.), with the MIC being defined as the lowest compound concentration at which growth was ≥90% inhibited compared to antibiotic-free control. The following Gram-negative bacterial strains were included in these assays: • Escherichia coli W4573, ATCC 25922, and ATCC BAA-201 (an extended spectrum β-lactamase (ESBL)-producing strain that expresses the TEM-3 β-lactamase). • Klebsiella pneumoniae ATCC 13883 and ATCC 700603 (an ESBL-producing strain that expresses the SHV-18 β-lactamase). • Pseudomonas aeruginosa ATCC 27853. The efflux pump mutant E. coli strain N43 (acrA1) was used as a positive control.
The enhancement is the ratio of the minocycline MIC in the absence of test compound to the minocycline MIC in the presence of test compound.

Structure (SMILES): Cl.Cl.NCCC[C@H](N)CNC(=O)c1ccccc1C(F)(F)F [Example 1, (S)-5-(2-(trifluoromethyl)benzamido)pentane-1,4-diaminium chloride]
- Enhancement: 1

Structure (SMILES): Cl.Cl.NCCC[C@H](N)CNC(=O)c1cccc(C(F)(F)F)c1 [Example 2, (S)-5-(3-(trifluoromethyl)benzamido)pentane-1,4-diaminium chloride]
- Enhancement: 2

Structure (SMILES): Cl.Cl.NCCC[C@H](N)CNC(=O)c1ccc(C(F)(F)F)cc1 [Example 3, (S)-5-(4-(trifluoromethyl)benzamido)pentane-1,4-diaminium chloride]
- Enhancement: 4

Structure (SMILES): Cl.Cl.NCCC[C@H](N)CNC(=O)c1ccccc1-c1ccccc1 [Example 4, (S)-5-([1,1′-biphenyl]-2-carboxamido)pentane-1,4-diaminium chloride]
- Enhancement: 2

Structure (SMILES): Cl.Cl.NCCC[C@H](N)CNC(=O)c1cc(C(F)(F)F)ccc1C(F)(F)F [Example 5, (S)-5-(2,5-bis(trifluoromethyl)benzamido)pentane-1,4-diaminium chloride]
- Enhancement: 2

Structure (SMILES): Cl.Cl.NCCC[C@H](N)CNC(=O)c1ccc(C(F)(F)F)c(C(F)(F)F)c1 [Example 6, (S)-5-(3,4-Bis(trifluoromethyl)benzamido)pentane-1,4-diaminium chloride]
- Enhancement: 32

Structure (SMILES): Cl.Cl.NCCC[C@H](N)CNC(=O)c1cc(C(F)(F)F)cc(C(F)(F)F)c1 [Example 7, (S)-5-(3,5-bis(trifluoromethyl)benzamido)pentane-1,4-diaminium chloride]
- Enhancement: 16

Structure (SMILES): Cl.Cl.NCCC[C@@H](N)CNC(=O)c1cc(C(F)(F)F)cc(C(F)(F)F)c1 [Example 8, (R)-5-(3,5-bis(trifluoromethyl)benzamido)pentane-1,4-diaminium chloride]
- Enhancement: 8

Structure (SMILES): Cl.Cl.NCC[C@H](N)CNC(=O)c1cc(C(F)(F)F)cc(C(F)(F)F)c1 [Example 9, (S)-4-(3,5-bis(trifluoromethyl)benzamido)butane-1,3-diaminium chloride]
- Enhancement: 16

Structure (SMILES): CC(C)(C)c1cc(C(=O)NC[C@@H](N)CCCN)cc(C(C)(C)C)c1.Cl.Cl [Example 10, (S)-5-(3,5-di-tert-butylbenzamido)pentane-1,4-diaminium chloride]
- Enhancement: 64

Structure (SMILES): Cl.Cl.NCCC[C@H](N)CNC(=O)c1cc(-c2ccccc2)cc(-c2ccccc2)c1 [Example 11, (S)-5-([1,1′:3′,1″-terphenyl]-5′-carboxamido)pentane-1,4-diaminium chloride]
- Enhancement: 128

Structure (SMILES): NC[C@@H](N)CCCNC(=O)c1cc(-c2ccccc2)cc(-c2ccccc2)c1 [Example 12, (S)-5-([1,1′:3′,1″-terphenyl]-5′-carboxamido)pentane-1,2-diaminium chloride]
- Enhancement: 2

Structure (SMILES): Cl.Cl.NCCC[C@H](N)CNC(=O)c1cc(-c2ccc(F)cc2)cc(-c2ccc(F)cc2)c1 [Example 13, (S)-5-(4,4″-difluoro-[1,1′:3′,1″-terphenyl]-5′-carboxamido)pentane-1,4-diaminium chloride]
- Enhancement: 128
